The target in one experiment is T1, procaspase-3 (Homo sapiens, UniProt P42574).
T1 construct: His6 (C); made in house; host or cells: E. coli BL21(DE3)RP, pET-23b
T1 sequence (P42574 1-277): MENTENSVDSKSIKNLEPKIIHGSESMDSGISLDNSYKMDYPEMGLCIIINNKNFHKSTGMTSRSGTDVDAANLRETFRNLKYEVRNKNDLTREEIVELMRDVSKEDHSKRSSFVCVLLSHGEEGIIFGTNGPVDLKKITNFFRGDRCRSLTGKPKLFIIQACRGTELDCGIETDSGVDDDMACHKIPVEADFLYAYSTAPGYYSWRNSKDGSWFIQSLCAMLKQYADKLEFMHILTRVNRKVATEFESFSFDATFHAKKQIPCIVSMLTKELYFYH
Put plainly: Executioner procaspase-3 activation assay (Ac-DEVD-AFC fluorogenic substrate). The experiment is classed as biochemical. Particulars: incubation with compound for 5 h at 37° C.; 100 nM procaspase; read-out: Procaspase Activation 3. Here is the method:
The executioner procaspase-3, -6 and -7 activation assay protocol involves incubating the target protein at the physiologically-relevant concentration of 100 nM with activating compounds (ranging from 100 nM to 100 uM) in a total volume of 50 μL consisting of a reaction buffer of 50 mM HEPES, pH 7.4, 50 mM KCl, 1 mM DTT and 0.01% Triton-X100 (to reduce false positive hits due to compound aggregation). […] All components of the assay including protein, substrate and inhibitor are stored as frozen aliquots and thawed immediately prior to the assay.

A further experiment has as its target T2, procaspase-6 (Homo sapiens, UniProt P55212).
T2 sequence (P55212 1-293): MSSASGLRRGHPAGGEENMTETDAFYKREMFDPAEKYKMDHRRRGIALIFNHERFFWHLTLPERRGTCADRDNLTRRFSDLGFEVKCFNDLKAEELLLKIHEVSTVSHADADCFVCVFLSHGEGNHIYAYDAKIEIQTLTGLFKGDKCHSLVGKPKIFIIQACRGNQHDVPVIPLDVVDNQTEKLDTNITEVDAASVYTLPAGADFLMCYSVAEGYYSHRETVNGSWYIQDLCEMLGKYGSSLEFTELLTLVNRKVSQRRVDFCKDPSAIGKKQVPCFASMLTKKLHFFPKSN
Put plainly: Executioner procaspase-6 activation assay (Ac-VEID-AFC fluorogenic substrate). Particulars: incubation with compound for 5 h at 37° C.; 100 nM procaspase. Format: biochemical. The procedure:
The executioner procaspase-3, -6 and -7 activation assay protocol involves incubating the target protein at the physiologically-relevant concentration of 100 nM with activating compounds (ranging from 100 nM to 100 uM) in a total volume of 50 μL consisting of a reaction buffer of 50 mM HEPES, pH 7.4, 50 mM KCl, 1 mM DTT and 0.01% Triton-X100 (to reduce false positive hits due to compound aggregation). The procaspase/small molecule incubations are then agitated at 37° C. and assayed at various time points by addition of the fluorogenic peptide substrate 7-Amino-4-trifluoromethylcoumarin-DEVD (Ac-DEVD-AFC) (procaspases-3, -7) or Ac-VEID-AFC (procaspase-6) to a final concentration of 25 μM and analyzed by a kinetic 30 minute assay (excitation 365 nm and emission 495 nm). The final concentration of DMSO in each well is 3% and has no effect on enzyme stability or activity. […] All components of the assay including protein, substrate and inhibitor are stored as frozen aliquots and thawed immediately prior to the assay.
Tables 1 and 2. Procaspase activation as a result of incubation with compound for 5 h at 37° C. (+++ EC50˜0.5-10 μM; ++ EC50˜10-50 μM; + EC50˜50-200 μM; -no activation observed; ND not determined).

Turning to `O=C(Nc1cccc(-c2cn3ccccc3n2)c1)c1cc2cccc(O)c2oc1=O` [1541A, 8-Hydroxy-2-oxo-2H-chromene-3-carboxylic acid (3-imidazo[1,2-a]pyridin-2-yl-phenyl)-amide], the EC50 is 0.5 to 10 µM on procaspase-3 and over 100 µM on procaspase-6. In the case of `O=C(Nc1cccc(-c2cn3ccccc3n2)c1)c1cc2cccc(OC(F)(F)F)c2oc1=O` [1541B, 2-Oxo-8-trifluoromethoxy-2H-chromene-3-carboxylic acid (3-imidazo[1,2-a]pyridin-2-yl-phenyl)-amide], the EC50 on procaspase-3 and at procaspase-6 was over 100 µM throughout. Consider `COc1ccc2cc(C(=O)Nc3cccc(-c4cn5ccccc5n4)c3)c(=O)oc2c1` [1541C, 7-Methoxy-2-oxo-2H-chromene-3-carboxylic acid (3-imidazo[1,2-a]pyridin-2-yl-phenyl)-amide], for which the EC50 at procaspase-3 and at procaspase-6 was over 100 µM in each case. In the case of `COc1cc(CN2CCOCC2)c2oc(=O)c(C(=O)Nc3cccc(-c4cn5ccccc5n4)c3)cc2c1` [1541D, 6-Methoxy-8-morpholin-4-ylmethyl-2-oxo-2H-chromene-3-carboxylic acid (3-imidazo[1,2-a]pyridin-2-yl-phenyl)-amide], the EC50 at procaspase-3 and at procaspase-6 was over 100 µM in each case. Consider `COc1cccc2cc(C(=O)Nc3cccc(-c4nc5ccccc5[nH]4)c3)c(=O)oc12` [1541F, 8-Methoxy-2-oxo-2H-chromene-3-carboxylic acid [3-(1H-benzoimidazol-2-yl)-phenyl]-amide], for which the EC50 on procaspase-3 and on procaspase-6 was over 100 µM in each case.

On to `COc1cccc2cc(C(=O)Nc3ccccc3)c(=O)oc12` [1541H, 8-Methoxy-2-oxo-2H-chromene-3-carboxylic acid phenylamide], for which the EC50 on procaspase-3 and at procaspase-6 was over 100 µM each time.

On to `COc1cccc2cc(C(=O)Nc3cccc(N4CCOCC4)c3)c(=O)oc12` [1541I, 8-Methoxy-2-oxo-2H-chromene-3-carboxylic acid (3-morpholin-4-yl-phenyl)-amide], for which the EC50 at procaspase-3 and at procaspase-6 was over 100 µM throughout. For `O=C(Nc1cccc(-c2cn3ccccc3n2)c1)c1cc2cc(Br)ccc2oc1=O` [compound 1, 6-Bromo-2-oxo-2H-chromene-3-carboxylic acid (3-imidazo[1,2-a]pyridin-2-yl-phenyl)-amide], the EC50 at procaspase-3 and at procaspase-6 was 50 to 200 µM throughout. Consider `O=C(Nc1cccc(-c2cn3ccccc3n2)c1)c1cc2cccc(F)c2oc1=O` [compound 2, 8-Fluoro-2-oxo-2H-chromene-3-carboxylic acid (3-imidazo[1,2-a]pyridin-2-yl-phenyl)-amide], for which the EC50 on procaspase-3 and at procaspase-6 was 0.5 to 10 µM each time. Turning to `O=C(Nc1cccc(-c2cn3ccccc3n2)c1)c1cc2ccc(O)c(O)c2oc1=O` [compound 3, 7,8-Dihydroxy-2-oxo-2H-chromene-3-carboxylic acid (3-imidazo[1,2-a]pyridin-2-yl-phenyl)-amide], the EC50 at procaspase-3 is 50 to 200 µM; at procaspase-6, over 100 µM. For `O=C(Nc1cccc(-c2cn3ccccc3n2)c1)c1cc2cccc(Br)c2oc1=O` [compound 4, 8-Bromo-2-oxo-2H-chromene-3-carboxylic acid (3-imidazo[1,2-a]pyridin-2-yl-phenyl)-amide] the same measures were over 100 µM and over 100 µM. For `CCOc1cccc2cc(C(=O)Nc3cccc(-c4cn5ccccc5n4)c3)c(=O)oc12` [compound 5, 8-Ethoxy-2-oxo-2H-chromene-3-carboxylic acid (3-imidazo[1,2-a]pyridin-2-yl-phenyl)-amide] the same measures were over 100 µM and over 100 µM.

`COc1ccc2oc(=O)c(C(=O)Nc3cccc(-c4cn5ccccc5n4)c3)cc2c1` [compound 6, 6-Methoxy-2-oxo-2H-chromene-3-carboxylic acid (3-imidazo[1,2-a]pyridin-2-yl-phenyl)-amide]: the EC50 on procaspase-3 and on procaspase-6 was over 100 µM in each case. Take `O=C(Nc1cccc(-c2cn3ccccc3n2)c1)c1cc2cc(O)c(O)cc2oc1=O` [compound 7, 6,7-Dihydroxy-2-oxo-2H-chromene-3-carboxylic acid (3-imidazo[1,2-a]pyridin-2-yl-phenyl)-amide]: the EC50 at procaspase-3 and at procaspase-6 was over 100 µM each time.

Regarding `COc1ccc2cc(C(=O)Nc3cccc(-c4cn5ccccc5n4)c3)c(=O)oc2c1OC` [compound 8, 7,8-Dimethoxy-2-oxo-2H-chromene-3-carboxylic acid (3-imidazo[1,2-a]pyridin-2-yl-phenyl)-amide], on procaspase-3, the EC50 is over 100 µM. `O=C(Nc1cccc(-c2cn3ccccc3n2)c1)c1cc2cc(OC(F)(F)F)ccc2oc1=O` [compound 9, 6-Trifluoromethoxy-2-oxo-2H-chromene-3-carboxylic acid (3-imidazo[1,2-a]pyridin-2-yl-phenyl)-amide]: the EC50 on procaspase-3 and on procaspase-6 was over 100 µM throughout.

Take `O=C(Nc1cccc(-c2cn3ccccc3n2)c1)c1cc2cc(I)ccc2oc1=O` [compound 10, 6-Iodo-2-oxo-2H-chromene-3-carboxylic acid (3-imidazo[1,2-a]pyridin-2-yl-phenyl)-amide]: the EC50 at procaspase-3 and on procaspase-6 was over 100 µM each time. Take `O=C(Nc1cccc(-c2cn3ccccc3n2)c1)c1cc2cc(O)ccc2oc1=O` [compound 11, 6-Hydroxy-2-oxo-2H-chromene-3-carboxylic acid (3-imidazo[1,2-a]pyridin-2-yl-phenyl)-amide]: the EC50 at procaspase-3 and at procaspase-6 was over 100 µM throughout.

Take `O=C(Nc1cccc(-c2cn3ccccc3n2)c1)c1cc2ccccc2oc1=O` [compound 13, 2-oxo-2H-chromene-3-carboxylic acid (3-imidazo[1,2-a]pyridin-2-yl-phenyl)-amide]: the EC50 on procaspase-3 is over 100 µM. Turning to `COc1cc(N2CCOCC2)c2oc(=O)c(C(=O)Nc3cccc(-c4cn5ccccc5n4)c3)cc2c1` [compound 14, 6-Methoxy-8-morpholin-4-yl-2-oxo-2H-chromene-3-carboxylic acid (3-imidazo[1,2-a]pyridin-2-yl-phenyl)-amide], the EC50 on procaspase-3 and at procaspase-6 was over 100 µM in each case. On to `COc1cccc2cc(C(=O)Nc3cccc(-c4ccncc4)c3)c(=O)oc12` [compound 20, 8-Methoxy-2-oxo-2H-chromene-3-carboxylic acid (3-pyridin-4-yl-phenyl)-amide], for which the EC50 on procaspase-3 and at procaspase-6 was over 100 µM throughout. With `COc1cccc2cc(C(=O)Nc3cccc(-c4cn5ccccc5n4)c3)oc12` [compound 179, 7-Methoxy-benzofuran-2-carboxylic acid (3-imidazo[1,2-a]pyridin-2-yl-phenyl)-amide], the EC50 at procaspase-3 and at procaspase-6 was 10 to 50 µM in each case. With `O=C(Nc1cccc(-c2cn3ccccc3n2)c1)C1=Cc2cc(Cl)ccc2OC1` [compound 180, 6-Chloro-2H-chromene-3-carboxylic acid (3-imidazo[1,2-a]pyridin-2-yl-phenyl)-amide], the EC50 at procaspase-3 was 50 to 200 µM; at procaspase-6, over 100 µM. For `O=C(Nc1cccc(-c2cn3ccccc3n2)c1)c1cc2ccccc2[nH]c1=O` [compound 181, 2-Oxo-1,2-dihydro-quinoline-3-carboxylic acid (3-imidazo[1,2-a]pyridin-2-yl-phenyl)-amide] the same measures were 10 to 50 µM and 10 to 50 µM. On to `COc1cccc2cc(C(=O)Nc3ccc(-c4nc5ccccc5[nH]4)cc3)c(=O)oc12` [compound 183, 8-Methoxy-2-oxo-2H-chromene-3-carboxylic acid [4-(1H-benzoimidazol-2-yl)-phenyl]-amide], for which the EC50 at procaspase-3 was in the range of 0.5 to 10 µM. As to `COc1cccc2cc(C(=O)Nc3cccc(-c4cn5ccccc5n4)c3)c(=O)oc12` [compound 1541, 8-Methoxy-2-oxo-2H-chromene-3-carboxylic acid (3-imidazo[1,2-a]pyridin-2-yl-phenyl)-amide], at procaspase-6, the EC50 was in the range of 0.5 to 10 µM.

(Values after patent US8642788B2, “Activators of executioner procaspases 3, 6 and 7” (The Regents of the University of California, priority 2008, dated 2014).)
